Data on 16 compounds can be found in patent US5086071A, “2,5,6,7-tetranor-4,8-inter-m-phenylene PGI2 derivatives” (Toray Industries, Inc., priority 1989, dated 1992).

Structures are written as SMILES. ≈ marks a conversion by molar mass, not a printed value.

The test system of one data set is gastric acid secretion. In words: Gastric Acid Secretion Inhibition (pentagastrin-stimulated, perfused stomach). The conditions noted are these: intravenous; pentagastrin 0.05 μg/Kg/min; relative to PGE2 set as 1. It counts as in vivo, rat (male SD rats). The protocol:
Male SD rats were operated by means of ventrotomy under urethane anesthesia. A double cannula was inserted into the fundus of the rat. The stomach lumen was continuously perfused with a physiological saline solution. The perfusate was drawn into the pH meter to continuously measure its pH (M. Ghosh, H. Schild, Br. J. Pharmacol. 13, 54 (1958)).
Pentagastrin was infused continuously at a rate of 0.05 μg/Kg/min. to stimulate gastric acid secretion.
The test compounds were injected intravenuously into the femoral vein when the pH reached a steady state at about 4.0.
Gastric acid secretion inhibition activity is calculated from the area made by pH augmentation against time.
The potency of the compounds is compared and expressed in terms of PGE2 ratio where PGE2 is set as 1.

For the next data set, the system named is stomach. In words: Gastric Cytoprotection (0.2N NaOH-induced stomach lesion, ulcer index). It counts as in vivo. The conditions noted are these: test compound 30 minutes before oral 0.2N NaOH; killed one hour later; read-out: ED50 (dose which reduces an ulcer index by 50% of that in a control animal). How it is done: Gastric cytoprotection was measured according to the method of A. Robert, et al. (Gastroenterlogy 77 (3), 443 (1979).
Thirty minutes later after the test compound was administered, the animals were given orally 0.2N NaOH and killed one hour later by chloroform anesthesia.
The stomach was taken out, fixed with 5% formalin solution, and opened along greater curvature.
The length of the lesion brought about in the stomach is measured and expressed in terms of the ulcer index. Gastric cytoprotection activity is expressed in Table 1 below as an ED50 value (dose in μg/Kg which reduces an ulcer index by 50% of that in a control animal (ulcer index: 100%)).

The test system of the next data set is platelet aggregation. In words: Inhibiting Effect of Platelet Aggregation (ADP-induced, human platelet rich plasma). It counts as cell-based. The following applies: human PRP, ADP 10 μM, test compound added one minute prior to ADP, read-out: ED50 (text: IC50), inhibition of platelet aggregation. How it is done:
Blood collected from human intermediate cubital vein was centrifuged at 800 rpm for 10 minutes. The supernatant was taken out as platelet rich plasma (PRP). Aliquots of PRP were dispensed into test tubes to which […] (ADP) was added (final concentration: 10 μM) to induce platelet aggregation. The extent of platelet aggregation is determined by an aggregometer (Rika Denki, Tokyo) as a change of turbidity. The test compound is added in one minute prior to the addition pf ADP. IC50 values are calculated as a concentration of test compound which inhibits platelet aggregation by 50%.

The conditions of data set [1]: neutral aqueous solution; cited from earlier work.
For data set [2] the following is noted: cited from earlier work.

As for `CC(C)(Oc1ccccc1)[C@H](O)/C=C/[C@@H]1[C@H]2c3cccc(/C=C/C(=O)O)c3O[C@H]2C[C@H]1O` [Compound 79, d-(3E)-16-methyl-16-phenoxy-2,5,6,7,18,19,20-heptanor-3,4-didehydro-4,8-inter-m-phenylene PGI2], the “Gastric Antisecretory Activity, Relative Potency Ratio [PGE2 = 1.0]” value in the data set with gastric acid secretion is listed as 112. Also, the ED50 in the data set with stomach is 0.5 µg/kg.

For the compound `CCCCC[C@H](O)/C=C/[C@@H]1[C@H]2c3cccc(/C=C/C(=O)O)c3O[C@H]2C[C@H]1O` [Compound 24, d-(3E)-2,5,6,7-tetranor-3,4-didehydro-4,8-inter-m-phenylene PGI2], the “Gastric Antisecretory Activity, Relative Potency Ratio [PGE2 = 1.0]” value in the data set with gastric acid secretion stood at 23. Besides, in the data set on platelet aggregation, the 50% inhibitory concentration (IC50) turned out to be 0.4 ng/mL (≈ 1.07 nM). The median effective dose (ED50) in the data set on stomach came to 21.4 µg/kg.

`CC(C)(c1ccccc1)[C@H](O)/C=C/[C@@H]1[C@H]2c3cccc(/C=C/C(=O)O)c3O[C@H]2C[C@H]1O` [Compound 51, d-(3E)-16-methyl-16-phenyl-2,5,6,7,18,19,20-heptanor-3,4-didehydro-4,8-inter-m-phenylene PGI2]: in the data set with platelet aggregation, the IC50 stood at 1800 ng/mL (≈ 4280 nM).

As to `CCCCC(C)(C)[C@H](O)/C=C/[C@@H]1[C@H]2c3cccc(/C=C/C(=O)O)c3O[C@H]2C[C@H]1O` [Compound 34, d-(3E)-16,16-dimethyl-2,5,6,7-tetranor-3,4-didehydro-4,8-inter-m-phenylene PGI2], the “Gastric Antisecretory Activity, Relative Potency Ratio [PGE2 = 1.0]” value in the data set on gastric acid secretion is 36. In addition, the IC50 with platelet aggregation turned out to be 45 ng/mL (≈ 112 nM). For the same compound, the ED50 in the data set with stomach turned out to be 1.6 µg/kg.

Regarding `O=C(O)/C=C/c1cccc2c1O[C@H]1C[C@@H](O)[C@H](/C=C/[C@@H](O)COc3ccccc3)[C@@H]21` [Compound 75, d-(3E)-16-phenoxy-2,5,6,7,17,18,19,20-octanor-3,4-didehydro-4,8-inter-m-phenylene PGI2], the “Gastric Antisecretory Activity, Relative Potency Ratio [PGE2 = 1.0]” value in the data set on gastric acid secretion was 73. Besides, the IC50 in the data set with platelet aggregation is 29 ng/mL (≈ 71 nM). The ED50 with stomach is 0.89 µg/kg.

On to `CCCOC[C@H](O)/C=C/[C@@H]1[C@H]2c3cccc(/C=C/C(=O)O)c3O[C@H]2C[C@H]1O` [Compound 69, d-(3E)-2,5,6,7-tetranor-17-oxa-3,4-didehydro-4,8-inter-m-phenylene PGI2], for which the “Gastric Antisecretory Activity, Relative Potency Ratio [PGE2 = 1.0]” value with gastric acid secretion is reported as 10. The IC50 in the data set with platelet aggregation turned out to be 0.58 ng/mL (≈ 1.55 nM). Also, the ED50 in the data set on stomach came out at 6.5 µg/kg.

For the compound `CCCC[C@H](C)C[C@H](O)/C=C/[C@@H]1[C@H]2c3cccc(/C=C/C(=O)O)c3O[C@H]2C[C@H]1O` [Compound 31, d-(3E, 17S)-17-methyl-20a-homo-2,5,6,7-tetranor-3,4-didehydro-4,8-inter-m-phenylene PGI2], the IC50 with platelet aggregation was determined as 0.14 ng/mL (≈ 0.35 nM).

With `CCOCC(C)(C)[C@H](O)/C=C/[C@@H]1[C@H]2c3cccc(/C=C/C(=O)O)c3O[C@H]2C[C@H]1O` [Compound 72, d-(3E)-16,16-dimethyl-2,5,6,7-tetranor-18-oxa-3,4-didehydro-4,8-inter-m-phenylene PGI2], the “Gastric Antisecretory Activity, Relative Potency Ratio [PGE2 = 1.0]” value with gastric acid secretion amounted to 9. In addition, the IC50 in the data set on platelet aggregation was 100 ng/mL (≈ 248 nM). Also, the ED50 in the data set on stomach was 2.7 µg/kg.

Regarding `CCCCC(C)[C@H](O)/C=C/[C@@H]1[C@H]2c3cccc(/C=C/C(=O)O)c3O[C@H]2C[C@H]1O` (stereo partly drawn) [Compound 28, d-(3E)-16-methyl-2,5,6,7-tetranor-3,4-didehydro-4,8-inter-m-phenylene PGI2], the “Gastric Antisecretory Activity, Relative Potency Ratio [PGE2 = 1.0]” value in the data set with gastric acid secretion was determined as 55. Moreover, the IC50 in the data set on platelet aggregation was 1.6 ng/mL (≈ 4.14 nM). In the data set with stomach, the ED50 turned out to be 0.26 µg/kg.

In the case of `O=C(O)/C=C/c1cccc2c1O[C@H]1C[C@@H](O)[C@H](/C=C/[C@@H](O)c3cccc(F)c3)[C@@H]21` [Compound 43, d-(3E)-15-(m-fluorophenyl)-2,5,6,7,16,17,18,19,20-nonanor-3,4-didehydro-4,8-inter-m-phenylene PGI2], in the data set with stomach, the ED50 came to 0.39 µg/kg.

For the compound `O=C(O)/C=C/c1cccc2c1O[C@H]1C[C@@H](O)[C@H](/C=C/[C@@H](O)c3ccccc3)[C@@H]21` [Compound 37, d-(3E)-15-phenyl-2,5,6,7,16,17,18,19,20-nonanor-3,4-didehydro-4,8-inter-m-phenylene PGI2], in the data set with gastric acid secretion, the “Gastric Antisecretory Activity, Relative Potency Ratio [PGE2 = 1.0]” value turned out to be 83. Further, the IC50 in the data set with platelet aggregation was determined as 0.56 ng/mL (≈ 1.48 nM). For the same compound, in the data set with stomach, the ED50 was determined as 0.83 µg/kg.

Turning to `O=C(O)/C=C/c1cccc2c1O[C@H]1C[C@@H](O)[C@H](/C=C/[C@@H](O)C3CCCC3)[C@@H]21` [Compound 57, d-(3E)-15-cyclopentyl-2,5,6,7,16,17,18,19,20-nonanor-3,4-didehydro-4,8-inter-m-phenylene PGI2], in the data set on stomach, the ED50 came to 5.07 µg/kg.

For `C[C@@H](Oc1ccccc1)[C@H](O)/C=C/[C@@H]1[C@H]2c3cccc(/C=C/C(=O)O)c3O[C@H]2C[C@H]1O` [Compound 77, d-(3E,16R)-16-phenoxy-2,5,6,7,18,19,20-heptanor-3,4-didehydro-4,8-inter-m-phenylene PGI2], the “Gastric Antisecretory Activity, Relative Potency Ratio [PGE2 = 1.0]” value with gastric acid secretion is 83. The IC50 with platelet aggregation turned out to be 14 ng/mL (≈ 33.1 nM). In addition, the ED50 in the data set on stomach is 0.4 µg/kg.

Take `O=C(O)/C=C/c1cccc2c1O[C@H]1C[C@@H](O)[C@H](/C=C/[C@@H](O)c3ccc(Cl)cc3)[C@@H]21` [Compound 40, d-(3E)-15-(p-chlorophenyl)-2,5,6,7,16,17,18,19,20-nonanor-3,4-didehydro-4,8-inter-m-phenylene PGI2]: in the data set with stomach, the ED50 is 0.46 µg/kg.

As for `O=C(O)/C=C/c1cccc2c1O[C@H]1C[C@@H](O)[C@H](/C=C/[C@@H](O)C3CCCCC3)[C@@H]21` [Compound 60, d-(3E)-15-cyclohexyl-2,5,6,7,16,17,18,19,20-nonanor-3,4-didehydro-4,8-inter-m-phenylene PGI2], the “Gastric Antisecretory Activity, Relative Potency Ratio [PGE2 = 1.0]” value in the data set with gastric acid secretion is given as 14. For the same compound, in the data set with platelet aggregation, the IC50 is 0.35 ng/mL (≈ 0.91 nM). Moreover, the 50% effective dose (ED50) in the data set with stomach came out at 0.88 µg/kg.

For `CCCCC[C@H](O)/C=C/[C@@H]1[C@H]2C/C(=C/CCCC(=O)O)O[C@H]2C[C@H]1O` [PGI2, Prostaglandin I2], the stability result in data set [1] is “extremely unstable even in neutral aqueous solution”. For the same compound, in data set [2], the “duration of physiological activities in vivo” value is recorded as “only short duration of physiological activities in vivo” and the metabolism in vivo result is “metabolized quickly in vivo”.
